US20230190750A1, “METHODS OF TREATING AND PREVENTING CANCER DRUG RESISTANCE” (Genentech, Inc., priority 2014, published 2023)

Experiments:
Assay type in all cases: cell-based
CHL-1 melanoma cells = test: Single and dual drug treatment, cell growth of CHL-1 melanoma cells; conditions: growth observed on days 7, 14, 21, 28, 35
Description: FIG. 11.|A drug screen was performed on CHL-1 melanoma cells. The cells were treated with DMSO (control), GDC-0973 (i.e., cobimetinib), GDC-0032 (PI3K-Alpha Inhibitor), BFJ-398 (pan FGFR inhibitor), GDC-0973 and GDC-0032, or GDC-0973 and BGJ-398.
Experiments were performed on CHL-1 melanoma cells to determine the effect of single and dual drug treatment on cell growth (FIG. 11). The cells were treated with DMSO (control), GDC-0973, GDC-0032, BGJ398, GDC-0973 and GDC-0032, or GDC-0973 and BGJ398. Cell growth was observed on days 7, 14, 21, 28, and 35, or until the cells had reached near 100% confluency. […] In contrast, cells treated with the combination treatment of GDC-0973 and GDC-0032 or the combination of GDC-0973 and BGJ398 never reached confluency through day 35.

[1] = system: HS 895.T normal skin fibroblast cells; test: Single and dual drug treatment, cell growth of HS 895.T normal skin fibroblast cells; conditions: growth observed on days 7, 14, 21, 28, 35
Description: FIG. 13.|A drug screen was performed on Hs 895.T normal skin fibroblast cells. The cells were treated with DMSO (control), GDC-0973 (i.e., cobimetinib), GDC-0032 (PI3K-Alpha Inhibitor), BFJ-398 (pan FGFR inhibitor), GDC-0973 and GDC-0032, or GDC-0973 and BGJ-398.
Experiments were performed on HS 895.T normal skin fibroblast cells to determine the effect of single and dual drug treatment on cell growth (FIG. 13). The cells were treated with DMSO (control), GDC-0973, GDC-0032, BGJ398, GDC-0973 and GDC-0032, or GDC-0973 and BGJ398. Cell growth was observed on days 7, 14, 21, 28, and 35, or until the cells had reached near 100% confluency. […] The cells treated with GDC-0973, GDC-0032, GDC-0973 and GDC-0032, and GDC-0973 and BGJ398 never reached confluency through day 35.

[2] = system: pERK in SK MEL 24 VemR cells; test: Western blot of treated SK MEL 24 VemR cells; conditions: GDC-0973 0.5 μM, BGJ398 1 μM, 24 hours
Description: FIG. 14.|Single resistant SK MEL 24 VemR (SK MEL 24 cells resistant to vemurafenib) were treated with vemurafenib (i.e., PLX4032), BGJ398, and/or cobimetinib (i.e., GDC-0973). The cells were then processed and the presence/absence of FGFR1, pAKT, pMEK, pERK, PARP, pBAD, BIM, and βactin (control) were detected by Western blot. A melanoma cell line was made that is resistant to vemurafenib (“SK MEL 24 VemR”). The SK MEL 24 VemR cells were treated with vemurafenib (PLX4032), BGJ398, GDC-0973, BGJ398 and GDC-0973, vemurafenib and BGJ398, vemurafenib and GDC-0973, or vemurafenib, BGJ398, and GDC-0973. In all treatment conditions, the concentration of vemurafenib was 5 μM, the concentration of BGJ398 was 1 μM, and the concentration of GDC-0973 was 0.5 μM. The exposure time for all treatments was 24 hours. The cells were then processed and FGFR1, pAKT, pMEK, pERK, PARP, pBAD, BIM, and P-actin were probed for using Western blot.

624 MEL cells = test: Reactivation of MAPK and PI3K pathways by secreted growth factors in presence of PLX4032; conditions: 5 μM PLX4032 24 hours, 50 ng/mL factor 10 minutes
Description: (§1) FIG. 1A-D.| Factors secreted by tumor cells and/or the tumor microenvironment contribute to drug resistance through activation of cell-surface receptors. […] D, Secreted growth factors which promote resistance to PLX4032 reactivate MAPK and PI3K pathways. Activation of MAPK by FGF2, MAPK and AKT by HGF and AKT by NRG1 and SCF are shown in 624 MEL cells in the presence of PLX4032. Treatments were 5 μM PLX4032 for 24 hours and 50 ng·mL FGF2, HGF, NRGB1, or SCF for 10 minutes.

[3] = system: B-raf mutant melanoma cell lines; test: FGF2 rescue (drug resistance) in B-raf mutant melanoma cell lines
Description: (§2) FIG. 5A-C.| Screen of 10 melanoma cell lines and 10 breast cancer lines was performed to determine the role of FGF signalling in drug resistance. […] C, Summary of FGF receptors, their subfamily, and their ligands.
(§3) FGF signalling and resistance was studied in 10 HER2+ breast cancer cell lines and in 10 B-raf mutant melanoma cell lines (FIG. 5). 7 of the 10 HER2+ breast cancer cell lines were rescued by FGF2 (FIG. 5A). 8 of the 10 B-raf […] were rescued by FGF2 (FIG. 5B). Subsequent analysis determined that 50-70% of the melanoma lines with the V600E mutation were rescued by FGF2 (n=30).

[4] = system: HER2+ breast cancer cell lines; test: FGF2 rescue (drug resistance) in HER2+ breast cancer cell lines; conditions: of 10 HER2+ breast cancer cell lines
Description: as §2, §3

melanoma cell line = test: Secreted factor screen for resistance to B-raf and MEK antagonists in melanoma cell lines
Description: as §1

[5] = system: HER2+ breast cancer cells; test: Immunoblot of HER2+ breast cancer cells exposed to FGF2 with or without lapatinib; conditions: FGF2 50 ng/mL for 10 minutes or 24 hours, with or without lapatinib 2 μM
Description: FIG. 6A-B.| FGF2 reactivates key signalling pathways to promote resistance and stimulates sustained activation of downstream signaling. A, An immunoblot of cells exposed to FGF2 for 10 min compared to cells absent exposure. B, An immunoblot of cells exposed to FGF2 for 24 hrs compared to cells absent FGF2 exposure.
Furthermore, it was determined that FGF2 reactivates key signalling pathways to promote resistance (FIG. 6). This was shown in a cell assay wherein HER2+ breast cancer cells were exposed to FGF2 (50 ng/mL) for 10 minutes in the presence or absence of lapatinib (2 μM) (FIG. 6A). Similarly, an assay was performed wherein HER2+ breast cancer cells were exposed to FGF2 (50 ng/mL) for 24 hours in the presence or absence of lapatinib (2 μM) (FIG. 6B).

Compound	day by which cells reached confluency (CHL-1 melanoma cells) [days]	pathway activated in the presence of PLX4032 (624 MEL cells)	rescue of tumor cells from B-raf and MEK antagonists (melanoma cell line)	also measured
CCN1CCN(c2ccc(Nc3cc(N(C)C(=O)Nc4c(Cl)c(OC)cc(OC)c4Cl)ncn3)cc2)CC1 [BGJ398, 3-(2,6-Dichloro-3,5-dimethoxy-phenyl)-1-{6-[4-(4-ethyl-piperazin-1-yl)-phenylamino]-pyrimidin-4-yl}-1-methyl-urea]	≤ 14	–	–	day by which cells reached confluency [1]: ≤ 28 days
Cc1nc(-c2cn3c(n2)-c2ccc(-c4cnn(C(C)(C)C(N)=O)c4)cc2OCC3)n(C(C)C)n1 [GDC-0032]	≤ 7	–	–	–
O=C(c1ccc(F)c(F)c1Nc1ccc(I)cc1F)N1CC(O)([C@@H]2CCCCN2)C1 [GDC-0973, [3,4-Difluoro-2-(2-fluoro-4-iodo-phenylamino)-phenyl]-((S)-3-hydroxy-3-pi-peridin-2-yl-azetidin-1-yl)-methanone]	≤ 28	–	–	pERK levels (Western blot) [2]: lower pERK levels
FGF2: secreted growth factor, FGFR ligand, promotes resistance	–	MAPK	most broadly and potently	number of cell lines rescued by FGF2 ([3]; of 10 cell lines (FIG. 5B)): 8; melanoma lines with the V600E mutation rescued by FGF2 ([3]; subsequent analysis, n=30): 50-70%; number of cell lines rescued by FGF2 [4]: 7; activation of downstream signalling [5]: stimulates sustained activation of downstream signalling
HGF: secreted growth factor promoting resistance to PLX4032	–	MAPK and AKT	most broadly and potently	–
SCF: secreted growth factor promoting resistance to PLX4032	–	AKT	–	–
